For one assay, the target named is T1, human MR (Homo sapiens, UniProt P08235).
T1 construct: The full length human MR gene is cloned from a human kidney or human brain cDNA library; made in house; host or cells: SF9 insect cells (baculovirus)
T1 sequence (P08235 1-984): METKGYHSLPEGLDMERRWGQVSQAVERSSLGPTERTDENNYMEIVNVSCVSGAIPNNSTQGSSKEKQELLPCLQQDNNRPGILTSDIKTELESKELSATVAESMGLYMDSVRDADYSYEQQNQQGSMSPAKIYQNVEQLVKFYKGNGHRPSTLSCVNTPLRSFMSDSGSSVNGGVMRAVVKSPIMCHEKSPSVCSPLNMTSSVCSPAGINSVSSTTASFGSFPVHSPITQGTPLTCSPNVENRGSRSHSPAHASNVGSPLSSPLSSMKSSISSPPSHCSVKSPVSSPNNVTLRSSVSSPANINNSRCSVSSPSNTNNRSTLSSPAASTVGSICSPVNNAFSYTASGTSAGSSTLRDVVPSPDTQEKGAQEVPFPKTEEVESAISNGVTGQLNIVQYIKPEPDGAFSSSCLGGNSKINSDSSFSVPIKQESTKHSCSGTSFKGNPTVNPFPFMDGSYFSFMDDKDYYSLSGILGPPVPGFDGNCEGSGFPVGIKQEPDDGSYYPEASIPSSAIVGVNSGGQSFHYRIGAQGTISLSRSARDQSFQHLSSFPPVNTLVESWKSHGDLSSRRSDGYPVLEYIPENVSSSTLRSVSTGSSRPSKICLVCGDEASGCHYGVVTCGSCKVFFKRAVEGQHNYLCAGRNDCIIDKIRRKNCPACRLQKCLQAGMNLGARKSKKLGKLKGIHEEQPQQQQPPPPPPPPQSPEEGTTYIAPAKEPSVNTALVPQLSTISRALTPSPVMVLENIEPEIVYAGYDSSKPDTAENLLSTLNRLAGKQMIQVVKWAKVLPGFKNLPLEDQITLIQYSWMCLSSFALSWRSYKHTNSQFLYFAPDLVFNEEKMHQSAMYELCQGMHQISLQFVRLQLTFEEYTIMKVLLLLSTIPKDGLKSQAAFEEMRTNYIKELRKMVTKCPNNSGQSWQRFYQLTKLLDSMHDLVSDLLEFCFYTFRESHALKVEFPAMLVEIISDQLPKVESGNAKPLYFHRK
Kind of assay: Mineralocorticoid Receptor Binding Assay (Method 1). The conditions noted are these: [3H]-aldosterone. Here is the method: The full length human MR gene is cloned from a human kidney or human brain cDNA library. Briefly, using synthetic oligonucleotide primers (Eli Lilly and Company, Indianapolis) directed to nucleotides 20-54 and 3700-3666 of the human MR, polymerase chain reaction (PCR) is performed under standard conditions using a human cDNA library. The PCR reaction is performed in a final volume of 50 μl containing about 1 μl of a 50× stock solution of polymerase; about 1 μl of a 50× stock solution of DNTP; about 5 μl of an appropriate PCR buffer; about 1 μl of each primer; about 5 μl of a H. kidney or H. brain cDNA library; and about 36 μl of water. The reaction is allowed to denature for about 30 seconds at 95 degrees Celsius, anneal for about 30 seconds at 55 degrees Celsius, and extend for about 5 minutes at 72 degrees Celsius, the sequence being repeated for a total of about 35 cycles. The desired PCR product (3.68 Kb) is confirmed by gel electrophoresis and subsequently cut from the gel and stored at about −20 degrees Celsius until extraction. To extract the cDNA product from the agarose gel, the QIAEX II Gel Extraction protocol (QIAGEN, Inc.) is employed according to the manufacturer's instructions. Following extraction, the MR cDNA is cloned into an appropriate cloning vector (Zero Blunt TOPO PCR Cloning Kit (Invitrogen, Inc.) and a pAcHLT-baculovirus transfer vector (B.D./Pharminogen), then expressed in SF9 insect cells, essentially according to manufacturer's instructions. Sf9 cells are grown at a scale where gram quantity cell pellets are obtained for subsequent use in the MR binding assay. Harvested cell pellets are lysed by repeated freeze-thaw cycles (about 4) in a suitable lysis buffer then centrifuged at about 1×10^3 G (with the supernatant being saved for future assays).
MR binding assays are performed in a final total volume of about 250 μl containing about 20-25 μg of protein and 0.5 nM of [^3H]-aldosterone plus varying concentrations of test compound or vehicle. The assay binding buffer consists of 30 mM sodium molybdate, 30 mM of TRIS-HCl, 5 mM sodium phosphate, 5 mM sodium pyrophosphate, and about 10% glycerol, pH=7.5.
Briefly, assays are prepared at RT in 96-well Falcon 3072 plates, each well containing 210 μl of binding buffer, 10 μl of [^3H]-aldosterone, 10 μl of test compound/vehicle, and 20 μl of the resuspended receptor protein extract. Incubations are carried out at 4 degrees Celsius with shaking for about 16 hours. 200 μl aliquots of each incubation are filtered onto Millipore HA 0.45 micron 96-well filter plates, pre-moistened with cold 30 mM TRIS-HCl. The filter plates are suctioned dry with vacuum and immediately washed 3× with cold 30 mM TRIS-HCl. The plates are then punched out and the amount of receptor-ligand complex is determined by liquid scintillation counting using 4 ml of Ready Protein Plus™ liquid scintillation cocktail.

For assay [1] the following is noted: in combination with standard CHF therapy, patients suffering from advanced CHF; cited from earlier work.
The target in another assay is T2, glucocorticoid receptor (Homo sapiens, UniProt P04150).
T2 construct: containing 50-200 ug of A549 cell extract and 1.86 nM [^3H]-dexamethasone; host or cells: A549 human lung epithelial cells
T2 sequence (P04150 1-777): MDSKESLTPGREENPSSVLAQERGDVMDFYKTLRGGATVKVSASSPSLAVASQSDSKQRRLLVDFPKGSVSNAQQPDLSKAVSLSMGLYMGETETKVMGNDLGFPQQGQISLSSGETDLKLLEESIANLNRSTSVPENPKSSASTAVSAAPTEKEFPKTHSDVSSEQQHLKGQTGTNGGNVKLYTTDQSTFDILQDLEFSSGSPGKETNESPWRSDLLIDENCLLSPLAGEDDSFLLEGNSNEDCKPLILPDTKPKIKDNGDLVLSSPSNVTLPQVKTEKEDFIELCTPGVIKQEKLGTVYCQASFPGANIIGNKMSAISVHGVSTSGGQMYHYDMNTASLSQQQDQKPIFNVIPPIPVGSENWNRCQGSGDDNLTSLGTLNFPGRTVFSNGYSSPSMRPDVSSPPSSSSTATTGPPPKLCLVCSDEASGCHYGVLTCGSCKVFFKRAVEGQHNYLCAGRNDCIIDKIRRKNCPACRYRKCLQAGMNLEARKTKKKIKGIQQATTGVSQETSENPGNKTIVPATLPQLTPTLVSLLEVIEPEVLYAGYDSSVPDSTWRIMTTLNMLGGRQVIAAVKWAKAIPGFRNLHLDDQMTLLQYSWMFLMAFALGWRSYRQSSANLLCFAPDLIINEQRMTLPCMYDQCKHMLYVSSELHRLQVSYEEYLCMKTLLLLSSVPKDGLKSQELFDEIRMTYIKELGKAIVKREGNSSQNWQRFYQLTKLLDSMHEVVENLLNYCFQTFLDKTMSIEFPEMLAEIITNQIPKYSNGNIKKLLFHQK
Kind of assay: Glucocorticoid Receptor Binding Assay (Method 1). The note with it: A549 cell extract, [3H]-dexamethasone, read-out: GR Ki. Here is the method: A549 human lung epithelial cells (ATCC) are grown at a scale where gram quantity cell pellets are obtained. Harvested cell pellets are washed twice in cold phosphate buffered saline, centrifuged, and resuspended in cold assay binding buffer. The assay binding buffer consists of 10% glycerol, 50 mM Tris-HCl (pH7.2), 75 mM sodium chloride, 1.5 mM magnesium chloride, 1.5 mM EDTA, and 10 mM sodium molybdate. Cell suspensions were lysed via sonication, centrifuged, and the “extract” supernatant is snap frozen and stored at −80 C until needed.
GR binding assays are performed in a final volume of 140 ul containing 50-200 ug of A549 cell extract and 1.86 nM [^3H]-dexamethasone (Amersham) plus varying concentrations of test compound or vehicle. Briefly, assays are prepared at RT in 96-well Fisher 3356 plates, each well containing 100 ul of A549 cell extract, 20 ul of [^3H]-dexamethasone, and 20 ul of test compound/vehicle. Incubations are carried out at 4 degrees Celsius for 16 hours. After incubation, 70 ul of 3× dextran-coated charcoal solution is added to each reaction, mixed, and incubated for 8 minutes at RT. […] 200 ul of Microscint-20 scinillant (Packard Instruments) is added to each well and amount of receptor bound radioligand is determined using Packard Instruments TopCount instrument.

Broadly, the Ki is a measure of affinity in units of concentration, obtained from inhibition or displacement.

On to `CN1CC[C@@H](n2c(=O)[nH]c3cc(/C=C4/c5ccc(F)cc5OCc5c(F)cccc54)ccc32)C1` [Example 47], for which the inhibitory constant (Ki) on human MR is less than 500 nM.

Molecule `O=c1[nH]c2cc(C=C3c4ccc(F)cc4CCc4cc(F)ccc43)ccc2n1CCCN1CCOCC1` [Example 48] came in with a Ki at human MR of less than 500 nM.

In the case of `O=c1[nH]c2cc(C=C3c4ccc(F)cc4CCc4cc(F)ccc43)ccc2n1CCN1CCCC1` [Example 50], the inhibition constant (Ki) on human MR is less than 500 nM.

As to `CC(=O)S[C@@H]1CC2=CC(=O)CC[C@]2(C)[C@H]2CC[C@@]3(C)[C@@H](CC[C@@]34CCC(=O)O4)[C@H]12` [spironolactone], in assay [1], the “reduced cardiac related mortality” value is recorded as 30% and the “reduced frequency of hospitalization” value is reported as 35%.

Molecule `CN1CCN(CCn2c(=O)[nH]c3cc(C=C4c5ccc(F)cc5CCc5cc(F)ccc54)ccc32)CC1` [Example 52] showed an inhibition constant (Ki) on human MR of less than 500 nM.

Consider `O=c1[nH]c2cc(C=C3c4ccc(F)cc4CCc4cc(F)ccc43)ccc2n1CCN1CCNCC1` [Example 49], for which the inhibition constant Ki at human MR was less than 500 nM.

Consider `CN(C)CCn1c(=O)[nH]c2cc(C=C3c4ccc(F)cc4CCc4cc(F)ccc43)ccc21` [Example 51], for which, on human MR, the inhibition constant (Ki) is less than 500 nM.

Regarding `CN(C)CCn1c(=O)[nH]c2cc(/C=C3\c4ccccc4COc4cc(F)ccc43)ccc21` [Example 6], the results for the inhibitory constant (Ki) on glucocorticoid receptor and at human MR were less than 10000 nM and less than 500 nM, respectively.

The record behind these values is patent US20070037788A1, “Tricyclic steroid hormone nuclear receptor modulators” (Eli Lilly and Company, priority 2003, published 2007).
